Measured values reported in patent US7312221B2, “Inhibitors of macrophage migration inhibitory factor and methods for identifying the same” (Avanir Pharmaceuticals, priority 2003, dated 2007).
Where “and” joins values, the source holds several entries; their conditions need not be identical. Equal entries are not always repeated. Where two headings read alike, the source gives them in different places. Each block holds one compound with its values, some of them ahead of it.

Columns and labels:
[1] = molecular target: T1, MIF (Homo sapiens, UniProt P14174); assay: Tautomerase assay (in vitro tautomerase inhibitory activity); type: biochemical; settings: for MIF inhibitory activity, comparison of Compound 200 and Compound 203: in vitro activity, comparison of Table 2 (tautomerase; THP-1/MIF for 200 only); for in vitro tautomerase inhibitory activity: several different concentrations, FIG. 2 / FIG. 3
T1 sequence (P14174 2-115 limits assumed): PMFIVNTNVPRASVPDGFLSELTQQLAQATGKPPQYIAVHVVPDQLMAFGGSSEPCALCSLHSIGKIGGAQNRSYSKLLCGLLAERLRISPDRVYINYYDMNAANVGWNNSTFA
Description: An alternative in vitro assay is designed to measure the ability of MIF to catalyze tautomerization of the D-isomer of dopachrome (see Rosengren et al., Mol. Med. 2:143-149, 1996; Winder et al., J. Cell Sci. 106:153-166, 1993; Aroca et al., Biochem. J. 277:393-397). Briefly, in this method, D-dopachrome is provided to MIF in the presence and absence of a candidate inhibitor and the ability to catalyze the tautomerization to 5,6-dihydroxyindole-2-carboxylic acid (DHICA) is monitored. However, use of methyl esters of D-dopachrome may be preferred in that a faster reaction rate is observed. Detection of the tautomerization can be performed by any one of a variety of standard methods.
In a similar assay, the ability of MIF to catalyze the tautomerization of phenylpyruvate may be tested (see Johnson et al., Biochem. 38(48):16024-16033, 1999). Briefly, in this method, typically ketonization of phenylpyruvate or (p-hydroxyphenyl)pyruvate is followed by spectroscopy. Further, product formation may be verified by treatment of these compounds with MIF and subsequent conversion to malate for ^1H NMR analysis.
The tautomerization reaction is carried out essentially as described by Rosengren et al., Mol. Med 2(1):143-149, 1996. D-dopachrome conversion to 5,6-dihydroxyindole-2-carboxylic acid is assessed. 1 ml sample cuvettes containing 0.42 mM substrate and 1.4 μg of MIF in a sample solution containing 0.1 mM EDTA and 10 mM sodium phosphate buffer, pH 6.0 are prepared and the rate of decrease in iminochrome absorbance is followed at 475 nm. L-dopachrome is employed as a control. In addition, the reaction products can be followed using an HPLC, utilizing a mobile phase including 20 mM KH2PO4 buffer (pH 4.0) and 15% methanol with a flow rate of 1.2 ml/min. Fluorimetric detection is followed at 295/345 nm.
Alternatively, the tautomerization reaction utilizing phenylpyruvate or (p-hydroxyphenyl)pyruvate is carried out essentially as described by Johnson et al., Biochem. 38:16024-16033, 1999. In this version, ketonization of phenylpyruvate is monitored at 288 nm (ε=17300 M^−1 cm^−1) and the ketonization of (p-hydroxyphenyl)pyruvate is monitored at 300 nm (ε=21600 M^−1 cm^−1). The assay mixture contains 50 mM Na2HPO4 buffer (1 mL, pH 6.5) and an aliquot of a solution of MIF sufficiently dilute (0.5-1.0 μL of a 2.3 mg/mL solution, final concentration of 93-186 nM) to yield an initial liner rate. The assay is initiated by the addition of a small quantity (1-3.3 μL) of either phenylpyruvate or (p-hydroxyphenyl)pyruvate from stock solutions made up in ethanol. The crystalline forms of phenylpyruvate and (p-hydroxyphenyl)pyruvate exist exclusively as the enol isomers (Larsen et al., Acta Chem. Scand. B 28:92-96, 1974).

[2] = molecular target: T2, MIF produced by THP-1 cells (Homo sapiens, UniProt P14174); assay: THP-1 Cell Assay (THP-1/MIF inhibition, ELISA with anti-MIF monoclonal antibody); type: cell-based
T2 construct: a test cell may express the MIF naturally (e.g., THP-1 cells); endogenous in cells; host or cells: THP-1 cells, LPS-stimulated; conditioned supernatant
T2 sequence (P14174 2-115 limits assumed): T1 sequence (P14174 2-115 limits assumed)
Description: The assays may generally be divided into three categories, those being, assays which monitor export; those which monitor effector or small molecule binding, and those that monitor MIF activity. However, it should be noted that combinations of these assays are within the scope of the present application. […] In an alternative, these two assays (i.e., binding and activity assays) may be combined into a singular assay which detects binding of a test compound (e.g., the ability to displace monoclonal antibodies or inhibit their binding) while also affecting MIF activity. Such assays include combining an ELISA type assay (or similar binding assay) with a MIF tautomerism assay or similar functional assay. As one of ordinary skill in the art may readily recognize, the exact assay employed is irrelevant, provided it is able to detect the ability of the compound of interest to bind MIF.
Varying concentrations of inhibitor analogs are added to LPS stimulated THP-1 cells and allowed to incubate overnight. The following day the amount of immunoreactive MIF detected is evaluated by ELISA.
The high throughput screening assay for MIF inhibitors is performed in a 96-well format using MIF produced by THP-1 cells and is performed as follows. MIF assays are performed by ELISA as indicated above. […] The amount of MIF is calculated by interpolation from an MIF standard curve.

[3] = average of the determinations, read-out: Average IC 50 (Tautomerase Assay)
[4] = single determinations, range in brackets, read-out: Tautomerase Assay (Inhibitory Concentration (IC) of 50 μm)

melting point: 176 to 183 °C
SMILES: N#Cc1c(N2CCN(C(=O)c3c[nH]cn3)CC2)c2ccccc2n(Cc2ccc(F)cc2)c1=O [Compound 101, 1-(4-Fluoro-benzyl)-4-[4-(1H-imidazole-4-carbonyl)-piperazin-1-yl]-2-oxo-1,2-dihydro-quinoline-3-carbonitrile]

IC50 [1, 3]: 320 nM
MIF inhibitory activity, comparison of Compound 200 and Compound 203 [1]: satisfactory MIF inhibitory activity
in vitro tautomerase inhibitory activity [1]: exhibits MIF inhibitory activity
IC50 [1, 4]: 300 nM and 340 nM
IC50 ([2]; average of the determinations, read-out: Average IC 50 (THP-1/MIF Inhibition)): 150 nM
MIF inhibitory activity in the THP-1 Cell Assay ([2]; several different concentrations, FIG. 1): exhibits MIF inhibitory activity
SMILES: Cn1c(=O)c(C#N)c(N2CCN(C(=O)c3cccs3)CC2)c2ccccc21 [Compound 200]

melting point: 145 to 156 °C
SMILES: N#Cc1c(N2CCN(C(=O)c3cnccn3)CC2)c2ccccc2n(Cc2ccc(F)cc2)c1=O [Compound 95, 1-(4-Fluoro-benzyl)-2-oxo-4-[4-(pyrazine-2-carbonyl)-piperazin-1-yl]-1,2-dihydro-quinoline-3-carbonitrile]

melting point: 144 to 157 °C
SMILES: N#Cc1c(N2CCN(C(=O)c3ccc4ccccc4n3)CC2)c2ccccc2n(Cc2ccc(F)cc2)c1=O [Compound 96, 1-(4-Fluoro-benzyl)-2-oxo-4-[4-(quinoline-2-carbonyl)-piperazin-1-yl]-1,2-dihydro-quinoline-3-carbonitrile]

melting point: 140 to 160 °C
SMILES: N#Cc1c(N2CCN(C(=O)c3ccc4c(c3)OCO4)CC2)c2ccccc2n(Cc2ccc(F)cc2)c1=O [Compound 99, 4-[4-(Benzo[1,3]dioxole-5-carbonyl)-piperazin-1-yl]-1-(4-fluoro-benzyl)-2-oxo-1,2-dihydro-quinoline-3-carbonitrile]

melting point: 133 to 140 °C
SMILES: N#Cc1c(N2CCN(C(=O)C3CCCS3)CC2)c2ccccc2n(Cc2ccc(F)cc2)c1=O (stereo not drawn) [Compound 102, 1-(4-Fluoro-benzyl)-2-oxo-4-[4-(tetrahydro-thiophene-2-carbonyl)-piperazin-1-yl]-1,2-dihydro-quinoline-3-carbonitrile]

melting point: 123 to 135 °C
SMILES: N#Cc1c(N2CCN(C(=O)C3CCCO3)CC2)c2ccccc2n(Cc2ccc(F)cc2)c1=O (stereo not drawn) [Compound 98, 1-(4-Fluoro-benzyl)-2-oxo-4-[4-(tetrahydro-furan-2-carbonyl)-piperazin-1-yl]-1,2-dihydro-quinoline-3-carbonitrile]

melting point: 181 to 185 °C
SMILES: N#Cc1c(N2CCN(C(=O)c3ccc(C(F)(F)F)cc3)CC2)c2ccccc2n(Cc2ccc(F)cc2)c1=O [Compound 100, 1-(4-Fluoro-benzyl)-2-oxo-4-[4-(4-trifluoromethyl-benzoyl)-piperazin-1-yl]-1,2-dihydro-quinoline-3-carbonitrile]

melting point: 130 to 137 °C
SMILES: Cc1cc(C(=O)N2CCN(c3c(C#N)c(=O)n(Cc4ccc(F)cc4)c4ccccc34)CC2)no1 [Compound 97, 1-(4-Fluoro-benzyl)-4-[4-(5-methyl-isoxazole-3-carbonyl)-piperazin-1-yl]-2-oxo-1,2-dihydro-quinoline-3-carbonitrile]

IC50 [1, 3]: 98 nM
MIF inhibitory activity, comparison of Compound 200 and Compound 203 [1]: satisfactory MIF inhibitory activity
in vitro tautomerase inhibitory activity [1]: exhibits MIF inhibitory activity
IC50 [1, 4]: 98 nM
SMILES: N#Cc1c(N2CCN(C(=O)c3cccs3)CC2)c2ccccc2n(Cc2ccc(F)cc2)c1=O [Compound 203]
